Measured values published in the METLIN SMRT retention time set (Domingo-Almenara et al. 2019).

Test: gradient 5% acetonitrile 3 min, to 50% in 2 min, to 85% in 15 min, held 3 min, 100 µL/min
Conditions: column: Zorbax Extend-C18 2.1 x 50 mm; eluents: water / acetonitrile, 0.1% formic acid
Method in brief: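 Over 3 months, pure standards in mixtures of ~100 molecules were run by HPLC coupled to a quadrupole time-of-flight mass spectrometer in positive and negative ionization mode. The column was a Zorbax Extend-C18 (2.1 × 50 mm, 1.8 μm) at 100 μL/min, eluted with water and acetonitrile each holding 0.1% formic acid, with 40 μL dead and 900 μL dwell volumes. Retention time was determined from adduct peaks chosen by software and checked manually.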

Cc1ccc(Sc2nccnc2N2CCC(C(=O)N3CCN(c4cccc(C)c4)CC3)CC2)cc1
RP-LC retention time: 1310 s

COc1ccc(OC)c(S(=O)(=O)N2CCC(n3c(C)cnc3C)CC2)c1
RP-LC retention time: 630 s

O=C(NCCc1nc2cccnc2n1Cc1ccccc1)Nc1ccc2c(c1)OCO2
RP-LC retention time: 726 s

O=C(C1CCCC1)N1CC(N(Cc2ccccn2)C(=O)Nc2ccccc2)C1
RP-LC retention time: 579 s

Cc1ccc(S(=O)(=O)N2C[C@@H]3C[C@H]2C[C@@H]3NC(=O)c2cccs2)cc1Cl
RP-LC retention time: 992 s

Cc1cc(C(=O)N(CCn2nc(C)cc2C)c2nc3c(C(C)C)cccc3s2)on1
RP-LC retention time: 1200 s

CC1CCCN(S(=O)(=O)c2ccc(C(=O)Nc3nc4c(s3)CCc3ccccc3-4)cc2)C1 (configuration not stated)
RP-LC retention time: 1260 s

CCCC(=O)N1C[C@H]2C[C@H](C1)[C@H]1CCCC(=O)N1C2
RP-LC retention time: 601 s

COCCc1noc(-c2cnc3nc(C)ccc3c2Nc2cccc(Cl)c2)n1
RP-LC retention time: 763 s

COc1ccccc1NC(=O)Nc1c(-c2ccc(C)cc2)nc2ccccn12
RP-LC retention time: 700 s

CC(C)Cc1ccc(S(=O)(=O)N(CC(=O)N2CCNCC2)CC2CCCO2)cc1 (configuration not stated)
RP-LC retention time: 703 s

Cc1cccc(-c2ncccc2CNS(=O)(=O)c2cc(F)cc(F)c2)c1
RP-LC retention time: 776 s

Cc1ccc(-c2ccc(=O)n(Cc3nc(-c4ccc(F)cc4)no3)n2)cc1
RP-LC retention time: 1090 s

CC(C)NC(=O)c1ccc(-c2nc3cc(NS(=O)(=O)Cc4ccccc4)ccc3n2C)cc1
RP-LC retention time: 667 s

COc1ccc(NC(=O)CSc2nccc(N3CCN(c4cc(C)ccc4C)CC3)n2)c(OC)c1
RP-LC retention time: 980 s

CCCN(Cc1ccc(OC)cc1)Cc1cc(=O)n2cc(Cl)ccc2n1
RP-LC retention time: 654 s

CCC(=O)Nc1ccc(OCc2cc(C(=O)NC3CCC(C)CC3)no2)cc1 (configuration not stated)
RP-LC retention time: 601 s

CCc1noc(-c2cc(=O)n(CC(=O)NCc3ccc(SC)cc3)c3ccccc23)n1
RP-LC retention time: 928 s

CCOCCCNC(=O)C1CCN(c2cc(Oc3ccc(CC)cc3)ncn2)CC1
RP-LC retention time: 646 s

COC(=O)c1ccc(NC(=O)CN2CCc3[nH]c4c(C)c(Cl)ccc4c(=O)c3C2)cc1
RP-LC retention time: 569 s

O=C(NCCc1noc(C2CC2)n1)C1CCC1
RP-LC retention time: 651 s

COc1ncccc1CNC(=O)NC1CCCCC1
RP-LC retention time: 713 s

CN(Cc1ccccc1)Cc1cc(=O)n2cc(Cl)ccc2n1
RP-LC retention time: 608 s

CC(C)NC(=O)C1CCCN(c2nc3ncn(CC(=O)NCc4cccs4)c(=O)c3s2)C1 (configuration not stated)
RP-LC retention time: 660 s

CC1Oc2ccc(S(=O)(=O)N3CCC(C(=O)N4CCN(c5ccccc5)CC4)CC3)cc2NC1=O (configuration not stated)
RP-LC retention time: 848 s

COc1ccc(Cl)cc1C(=O)N1CCN=C1SCc1cccnc1
RP-LC retention time: 578 s

CN(C)c1nccnc1OC1CCN(C(=O)C2CCCCC2)C1 (configuration not stated)
RP-LC retention time: 765 s

Cn1c(=O)sc2cc(S(=O)(=O)N3CCC(C(=O)Nc4ccc5c(c4)OCCO5)CC3)ccc21
RP-LC retention time: 812 s

O=C(NCc1ccccn1)c1ccc2c(c1)N(CC(=O)N1CCCC1)C(=O)CO2
RP-LC retention time: 573 s

Cc1nnc(-c2ccc3ccn(CC(=O)Nc4ccccc4)c3c2)o1
RP-LC retention time: 778 s

O=C(CN1C(=O)C2CCCCN2c2ccc(C(=O)N3CCCC3)cc21)NCCc1ccco1 (configuration not stated)
RP-LC retention time: 664 s

CCC(C)(C)NC(=O)Cn1ncc2c(N3CCN(c4ccccn4)CC3)ncnc21
RP-LC retention time: 587 s

Cc1ccnc(NS(=O)(=O)c2ccc(NC(=O)C3COc4ccccc4O3)cc2)n1 (configuration not stated)
RP-LC retention time: 711 s

Cc1nc(N2CCN(c3ccccn3)CC2)nc2c1C(=O)CC(c1cccs1)C2 (configuration not stated)
RP-LC retention time: 732 s

Cn1cc(C(=O)NCc2ccc(F)cc2)c(S(=O)(=O)N2CCSCC2)n1
RP-LC retention time: 845 s

CCOc1cc(-c2noc(-c3nnn4c3COC(c3ccc(Cl)cc3)C4)n2)ccc1OC (configuration not stated)
RP-LC retention time: 1190 s

O=C(Cn1c(=O)cc(-c2nc(C3CC3)no2)c2ccccc21)NCCC1=CCCCC1
RP-LC retention time: 1110 s

COc1ccc(C(O)CN2CCN(c3ccccc3F)CC2)cc1 (configuration not stated)
RP-LC retention time: 660 s

O=C(NCc1ccco1)c1ccc2c(c1)C(=O)c1ccccc1-2
RP-LC retention time: 749 s

COc1ccc2[nH]cc(CCNC(=O)CN3C(=O)CCn4nc(-c5cn(C)c6ccccc56)cc43)c2c1
RP-LC retention time: 797 s

O=C(Cn1ccn2nc(-c3ccccc3)c(CO)c2c1=O)Nc1ccccc1Cl
RP-LC retention time: 808 s

C=CCNC(=O)N1CCCN(C2=NS(=O)(=O)C(c3cccc(Cl)c3)=C2C)CC1
RP-LC retention time: 773 s

O=C(c1ccc2ccnc(N3CCN(c4ccc(F)cc4)CC3)c2c1)N1CCN(c2ncccn2)CC1
RP-LC retention time: 749 s

O=C(c1ccc2c(c1)OCO2)N1CCC2(CC1)N(c1ccccc1)C(=O)CS2(=O)=O
RP-LC retention time: 685 s

O=c1c2scc(-c3ccc(Br)cc3)c2ncn1Cc1ccccn1
RP-LC retention time: 938 s

COc1ccc(CC(=O)N2CCC3(C2)C(=O)Nc2ccc(OC)cc23)cc1 (configuration not stated)
RP-LC retention time: 709 s

Cc1cc2c(cc1S(=O)(=O)N1CCCC1C(=O)NCCc1ccccc1)OC(C)C(=O)N2 (configuration not stated)
RP-LC retention time: 792 s

Cc1cc(C(=O)Nc2ccc3c(c2)OCCO3)no1
RP-LC retention time: 681 s

Cc1ccc(C)c(NC(=O)c2cc(C(C)C)n3nccc3n2)c1
RP-LC retention time: 1240 s

CC1Oc2ccc(-c3csc(NC(=O)c4ccc(F)cc4)n3)cc2NC1=O (configuration not stated)
RP-LC retention time: 879 s

CCCN(CC1CCOC1)S(=O)(=O)c1cc(F)ccc1C (configuration not stated)
RP-LC retention time: 943 s

COc1ccc(OC)c(CNC(=O)CCc2c(C)nn(-c3cc(N(C)C)ncn3)c2C)c1
RP-LC retention time: 726 s

COCCCN(C(=O)c1ccccc1)C(C)C(=O)c1c(C)[nH]c(C(=O)OC)c1C (configuration not stated)
RP-LC retention time: 736 s

CCCCn1c(=O)c2ccccc2n(Cc2nc(-c3ccc(C)c(C)c3)no2)c1=O
RP-LC retention time: 1290 s

COc1ccc(-c2nc3cnccn3c2Nc2ccc(C(=O)NCc3ccco3)cc2)cc1
RP-LC retention time: 710 s

CC(C)C(=O)Nc1nc(-c2ccc(F)cc2)cs1
RP-LC retention time: 916 s

CN1CCCN(C(=O)COc2ccc(Cl)cc2)c2ccccc21
RP-LC retention time: 960 s

CS(=O)(=O)N1CCC(C(=O)N2CCCC(c3nnc(-c4cccs4)o3)C2)CC1 (configuration not stated)
RP-LC retention time: 642 s

CCn1cnc(S(=O)(=O)N2CCC(C(=O)NCc3ccc(F)cc3)CC2)c1
RP-LC retention time: 700 s

O=C1COc2cc(S(=O)(=O)N3CCCC3C(=O)NCCN3CCCC3)c(Cl)cc2N1 (configuration not stated)
RP-LC retention time: 567 s

CCOC(=O)c1cc(S(=O)(=O)N2CCCC2C(=O)Nc2nc3ccc(C)cc3s2)cn1C (configuration not stated)
RP-LC retention time: 1040 s

COc1ccc(Cl)cc1NC(=O)c1cnc2c(c1)c(=O)n(C)c(=O)n2-c1ccccc1
RP-LC retention time: 1010 s

CCCCS(=O)(=O)N1CCCC(c2nnc(-c3ccc4c(c3)OCO4)o2)C1 (configuration not stated)
RP-LC retention time: 819 s

O=C(N[C@H]1C[C@@H]2C[C@H]1CN2S(=O)(=O)c1cccc2cccnc12)c1ccccc1
RP-LC retention time: 792 s

CCCNC(=O)N1CCC(c2noc(-c3ccccn3)n2)C1 (configuration not stated)
RP-LC retention time: 648 s

CCCn1ccc2sc(C)c(C(=O)NCc3ccc(OC)c(OC)c3)c2c1=O
RP-LC retention time: 780 s

CC1(C)C(=O)N(CC(=O)N2CCN(c3ccc(F)cc3)CC2)c2ccccc21
RP-LC retention time: 911 s

Cc1ccc(CCNC(=O)C2CCCN(C(=O)c3cc4sccc4n3C)C2)cc1 (configuration not stated)
RP-LC retention time: 911 s

Cc1csc(-c2cc(S(=O)(=O)N3CCN(c4ccccc4)CC3)c(C)s2)n1
RP-LC retention time: 1160 s

c1ccc(-c2noc(COC3CCCN(C4CCOCC4)C3)n2)cc1 (configuration not stated)
RP-LC retention time: 628 s

CCN1c2cc(Cl)ccc2C(=O)NC12CCN(C(=O)NCc1ccccc1)CC2
RP-LC retention time: 757 s

CCCN1C(=O)C(CC(=O)NC2CCCC2)Sc2ncccc21 (configuration not stated)
RP-LC retention time: 741 s

CCc1ccc2c(c1)-c1ccccc1S(=O)(=O)N2CC(=O)N1CCN(CC)CC1
RP-LC retention time: 678 s

CC(C)c1ccc(S(=O)(=O)N2CCC(C(=O)NCc3csc(-c4cccs4)n3)CC2)cc1
RP-LC retention time: 1030 s

COC(=O)c1c(C)[nH]c(C(=O)N2CCC(CC(=O)N3CCCCCC3)CC2)c1C
RP-LC retention time: 715 s

Cc1ccc(C(=O)Nc2nc(-c3ccccc3)cs2)cc1[N+](=O)[O-]
RP-LC retention time: 1090 s

Cn1c(=O)c(N2CCC(NC(=O)Nc3ccccc3)CC2)nc2ccccc21
RP-LC retention time: 829 s

Cc1ccc(NC(=O)NCC(c2cccnc2)c2cn(C)c3ccccc23)c(Cl)c1 (configuration not stated)
RP-LC retention time: 768 s

Cc1ccnc(NC(=O)C2CCCN(c3cc(=O)n(C)c(=O)n3C)C2)c1 (configuration not stated)
RP-LC retention time: 570 s

CCN(CC)c1ccc(NC(=O)C2CCCN(c3nc4ccccc4nc3C(F)(F)F)C2)c(C)c1 (configuration not stated)
RP-LC retention time: 825 s

CCc1cccc(NC(=O)Cc2nnc3cc(-c4nc(C(C)C)no4)ccn23)c1
RP-LC retention time: 918 s

Fc1ccc(Cn2cc(-c3noc(-c4ccccc4)n3)nn2)cc1
RP-LC retention time: 994 s

COc1ccccc1NC(=O)Cn1c(=O)n(-c2ccccc2)c(=O)c2c1cc(C)n2C
RP-LC retention time: 971 s

CN(CC1CCOCC1)C(=O)Nc1ccc(C(F)(F)F)cc1
RP-LC retention time: 812 s

O=S(=O)(c1ccc(-c2nnc(C3CC3)o2)o1)N1CCN(c2ccc(F)cc2)CC1
RP-LC retention time: 981 s

Cn1ncc2c(N3CCSCC3)nc(C(=O)NCc3cccnc3)nc21
RP-LC retention time: 570 s

O=C(CSc1cc(N2CCN(c3ccccc3F)CC2)ncn1)NCCC1=CCCCC1
RP-LC retention time: 1190 s
